Activity calls are given as the source filed them. The calls are words filed in the database; no cut-off is given here.
What was measured:
[1] = target: T1, Non-receptor tyrosine-protein kinase TYK2 (Homo sapiens, UniProt P29597); test: Inhibition of fluorescein-labeled kinase tracer binding to His-TVMV-fused TYK2 JH2 domain (575 to 869 residues) (unknown origin) measured after 90 mins by HTRF assay
[2] = target: T1, Non-receptor tyrosine-protein kinase TYK2; test: Inhibition of TYK2 JH1 domain (unknown origin)
[3] = target: Tyrosine-protein kinase JAK1 (Homo sapiens, UniProt P23458); test: Inhibition of JAK1 JH1 domain (unknown origin)
Chain of Tyrosine-protein kinase JAK1 (P23458 whole entry, the tested form may be a part): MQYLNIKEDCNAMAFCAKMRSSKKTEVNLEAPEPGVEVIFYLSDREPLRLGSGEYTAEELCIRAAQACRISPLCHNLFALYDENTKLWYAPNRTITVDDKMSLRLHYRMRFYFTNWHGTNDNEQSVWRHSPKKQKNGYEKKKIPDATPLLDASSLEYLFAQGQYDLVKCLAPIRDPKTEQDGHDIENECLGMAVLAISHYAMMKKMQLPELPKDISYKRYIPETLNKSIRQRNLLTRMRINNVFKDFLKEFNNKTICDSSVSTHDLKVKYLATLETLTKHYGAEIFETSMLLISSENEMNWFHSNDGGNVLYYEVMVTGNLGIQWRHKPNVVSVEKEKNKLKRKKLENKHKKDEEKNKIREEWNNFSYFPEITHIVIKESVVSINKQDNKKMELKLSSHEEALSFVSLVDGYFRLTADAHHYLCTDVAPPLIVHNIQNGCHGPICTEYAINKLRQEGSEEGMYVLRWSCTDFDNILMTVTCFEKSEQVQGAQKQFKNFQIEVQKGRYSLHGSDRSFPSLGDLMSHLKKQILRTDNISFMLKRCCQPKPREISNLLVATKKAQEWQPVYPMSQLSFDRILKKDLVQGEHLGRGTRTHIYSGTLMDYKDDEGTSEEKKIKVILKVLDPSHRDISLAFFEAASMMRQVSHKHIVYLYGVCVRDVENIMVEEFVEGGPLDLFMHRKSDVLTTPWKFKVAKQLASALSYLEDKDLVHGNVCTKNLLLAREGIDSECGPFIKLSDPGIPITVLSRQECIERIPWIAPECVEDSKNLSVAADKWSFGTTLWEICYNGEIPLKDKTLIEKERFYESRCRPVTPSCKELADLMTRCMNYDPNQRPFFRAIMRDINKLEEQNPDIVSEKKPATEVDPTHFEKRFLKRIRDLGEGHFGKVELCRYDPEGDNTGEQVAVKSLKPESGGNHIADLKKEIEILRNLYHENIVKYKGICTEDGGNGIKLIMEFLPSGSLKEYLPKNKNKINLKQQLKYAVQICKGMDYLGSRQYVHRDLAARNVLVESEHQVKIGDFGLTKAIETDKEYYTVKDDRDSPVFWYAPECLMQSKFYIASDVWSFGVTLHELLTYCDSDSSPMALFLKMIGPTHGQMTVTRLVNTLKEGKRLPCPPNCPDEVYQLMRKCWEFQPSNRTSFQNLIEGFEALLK

[4] = target: Tyrosine-protein kinase JAK2 (Homo sapiens, UniProt O60674); test: Inhibition of JAK2 JH1 domain (unknown origin)
[5] = target: JAK2/TYK2 (Homo sapiens, UniProt O60674+P29597); test: Inhibition of TYK2/JAK2 in IL23-stimulated human Kit225 cells by steady-glo luciferase assay
[6] = target: JAK1/TYK2 (Homo sapiens, UniProt P23458+P29597); test: Inhibition of TYK2/JAK1 in IFNalpha-stimulated human Kit225 cells by steady-glo luciferase assay
[7] = target: JAK3/JAK1 (Homo sapiens, UniProt P23458+P52333); test: Inhibition of JAK1/JAK3 (unknown origin) in IL-2 stimulated cells by cell based assay
Chain of JAK3/JAK1 (P52333 whole entry): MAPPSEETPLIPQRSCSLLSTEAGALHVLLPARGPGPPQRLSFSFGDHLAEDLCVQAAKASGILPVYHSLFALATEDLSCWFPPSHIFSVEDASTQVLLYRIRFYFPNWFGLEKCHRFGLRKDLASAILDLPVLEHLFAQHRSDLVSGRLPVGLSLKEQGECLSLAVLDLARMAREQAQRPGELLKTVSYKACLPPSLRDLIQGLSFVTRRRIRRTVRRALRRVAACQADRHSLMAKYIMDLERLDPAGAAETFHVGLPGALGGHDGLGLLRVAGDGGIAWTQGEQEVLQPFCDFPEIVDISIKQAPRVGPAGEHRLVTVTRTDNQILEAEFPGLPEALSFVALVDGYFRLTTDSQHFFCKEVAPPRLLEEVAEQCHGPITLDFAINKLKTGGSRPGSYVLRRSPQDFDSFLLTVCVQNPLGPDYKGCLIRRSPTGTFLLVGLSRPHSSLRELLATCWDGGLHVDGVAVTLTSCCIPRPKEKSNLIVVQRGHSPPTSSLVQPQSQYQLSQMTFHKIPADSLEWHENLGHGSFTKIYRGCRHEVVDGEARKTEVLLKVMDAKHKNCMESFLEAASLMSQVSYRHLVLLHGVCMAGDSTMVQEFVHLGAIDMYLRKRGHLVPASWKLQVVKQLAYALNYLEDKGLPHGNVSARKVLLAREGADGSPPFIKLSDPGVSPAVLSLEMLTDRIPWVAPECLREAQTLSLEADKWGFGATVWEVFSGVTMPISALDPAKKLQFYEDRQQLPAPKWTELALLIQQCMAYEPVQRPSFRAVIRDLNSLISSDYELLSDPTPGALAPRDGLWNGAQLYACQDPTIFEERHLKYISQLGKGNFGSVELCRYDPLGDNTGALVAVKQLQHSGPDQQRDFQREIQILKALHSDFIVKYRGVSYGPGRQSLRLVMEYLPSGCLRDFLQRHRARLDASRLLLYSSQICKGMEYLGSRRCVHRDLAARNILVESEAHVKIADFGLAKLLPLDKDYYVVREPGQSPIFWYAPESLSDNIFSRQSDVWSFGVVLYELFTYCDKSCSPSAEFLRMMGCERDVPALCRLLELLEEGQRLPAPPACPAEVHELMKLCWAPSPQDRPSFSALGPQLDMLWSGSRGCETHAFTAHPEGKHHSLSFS
Chain of JAK3/JAK1 (P23458 whole entry): as the sequence (P23458 whole entry, the tested form may be a part) above

[8] = target: JAK2/JAK1 (Homo sapiens, UniProt O60674+P23458); test: Inhibition of JAK1/JAK2 (unknown origin) in GM-CSF stimulated cells by cell based assay
[9] = test system: Mus musculus; test: Antiinflammatory activity in po dosed B6 CB17 mouse model of CD40-induced colitis assessed as inhibition of body weight loss administered twice daily as nanosuspension; format: functional, organism-based; settings: tested as the 2H-labelled form
[10] = test system: Mus musculus; test: Antiinflammatory activity in B6 CB17 mouse model of CD40-induced colitis assessed as reduction in colitis severity at 250 mg/kg, po BID administered as nanosuspension; format: functional, organism-based; settings: tested as the 2H-labelled form
[11] = test system: Mus musculus; test: Inhibition of IL12/IL18-induced IFNgamma production in po dosed C57BL/6 mouse pretreated for 1 hr followed by IL12 stimulation and subsequent IL18 addition and measured after 3 hrs; format: functional, organism-based; settings: tested as the 2H-labelled form
[12] = test system: Mus musculus; test: Antiinflammatory activity in B6 CB17 mouse model of CD40-induced colitis assessed as reduction in inflammation at 250 mg/kg, po BID administered as nanosuspension; format: functional, organism-based; settings: tested as the 2H-labelled form
[13] = test system: Mus musculus; test: Antiinflammatory activity in B6 CB17 mouse model of CD40-induced colitis assessed as reduction in colitis damage at 250 mg/kg, po BID administered as nanosuspension; format: functional, organism-based; settings: tested as the 2H-labelled form
[14] = target: T1, Non-receptor tyrosine-protein kinase TYK2; test: Inhibition of TYK2 JH2 domain in human whole blood assessed as inhibition of IFNalpha-induced STAT5 phosphorylation preincubated for 1 hr followed by IFNalpha stimulation and measured after 15 mins by fluorescence assay; format: tissue-based
[15] = Permeability across apical to basolateral side in human Caco2 cells; format: ADME, cell-based; settings: Caco-2, read-out: permeability
[16] = Efflux ratio of permeability in human Caco2; format: ADME, cell-based; settings: Caco-2
[17] = target: Mast/stem cell growth factor receptor Kit (Homo sapiens, UniProt P10721); test: Inhibition of cKIT (unknown origin)
Chain of Mast/stem cell growth factor receptor Kit (P10721 whole entry): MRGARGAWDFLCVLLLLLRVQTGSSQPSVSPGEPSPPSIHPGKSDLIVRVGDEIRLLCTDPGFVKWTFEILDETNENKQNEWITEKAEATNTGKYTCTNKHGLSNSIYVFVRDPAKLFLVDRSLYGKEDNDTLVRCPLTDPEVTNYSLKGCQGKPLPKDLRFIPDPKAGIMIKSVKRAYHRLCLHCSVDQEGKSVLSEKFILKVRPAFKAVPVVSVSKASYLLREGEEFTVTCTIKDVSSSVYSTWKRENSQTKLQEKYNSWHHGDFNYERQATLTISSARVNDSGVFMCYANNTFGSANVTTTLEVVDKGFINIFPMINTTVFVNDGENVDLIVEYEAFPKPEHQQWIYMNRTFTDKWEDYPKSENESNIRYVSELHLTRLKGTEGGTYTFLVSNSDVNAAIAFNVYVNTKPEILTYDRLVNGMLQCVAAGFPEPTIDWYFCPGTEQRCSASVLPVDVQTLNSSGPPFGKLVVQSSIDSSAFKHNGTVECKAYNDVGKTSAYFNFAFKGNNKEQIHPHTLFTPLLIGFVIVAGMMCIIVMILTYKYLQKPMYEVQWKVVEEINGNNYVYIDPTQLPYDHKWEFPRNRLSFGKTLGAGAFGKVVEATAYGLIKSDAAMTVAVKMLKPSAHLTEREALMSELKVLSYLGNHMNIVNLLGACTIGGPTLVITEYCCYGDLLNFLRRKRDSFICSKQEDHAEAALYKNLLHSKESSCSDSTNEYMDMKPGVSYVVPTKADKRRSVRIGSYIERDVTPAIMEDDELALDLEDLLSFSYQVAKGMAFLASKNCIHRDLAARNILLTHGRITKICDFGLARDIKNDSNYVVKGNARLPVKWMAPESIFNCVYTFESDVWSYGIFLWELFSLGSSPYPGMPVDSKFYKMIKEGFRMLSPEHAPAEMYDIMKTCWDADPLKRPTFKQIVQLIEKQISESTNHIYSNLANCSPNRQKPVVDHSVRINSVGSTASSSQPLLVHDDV

[18] = target: Voltage-gated inwardly rectifying potassium channel KCNH2 (Homo sapiens, UniProt Q12809); test: Inhibition of human ERG by fluorescence polarization assay
Chain of Voltage-gated inwardly rectifying potassium channel KCNH2 (Q12809 whole entry, the tested form may be a part): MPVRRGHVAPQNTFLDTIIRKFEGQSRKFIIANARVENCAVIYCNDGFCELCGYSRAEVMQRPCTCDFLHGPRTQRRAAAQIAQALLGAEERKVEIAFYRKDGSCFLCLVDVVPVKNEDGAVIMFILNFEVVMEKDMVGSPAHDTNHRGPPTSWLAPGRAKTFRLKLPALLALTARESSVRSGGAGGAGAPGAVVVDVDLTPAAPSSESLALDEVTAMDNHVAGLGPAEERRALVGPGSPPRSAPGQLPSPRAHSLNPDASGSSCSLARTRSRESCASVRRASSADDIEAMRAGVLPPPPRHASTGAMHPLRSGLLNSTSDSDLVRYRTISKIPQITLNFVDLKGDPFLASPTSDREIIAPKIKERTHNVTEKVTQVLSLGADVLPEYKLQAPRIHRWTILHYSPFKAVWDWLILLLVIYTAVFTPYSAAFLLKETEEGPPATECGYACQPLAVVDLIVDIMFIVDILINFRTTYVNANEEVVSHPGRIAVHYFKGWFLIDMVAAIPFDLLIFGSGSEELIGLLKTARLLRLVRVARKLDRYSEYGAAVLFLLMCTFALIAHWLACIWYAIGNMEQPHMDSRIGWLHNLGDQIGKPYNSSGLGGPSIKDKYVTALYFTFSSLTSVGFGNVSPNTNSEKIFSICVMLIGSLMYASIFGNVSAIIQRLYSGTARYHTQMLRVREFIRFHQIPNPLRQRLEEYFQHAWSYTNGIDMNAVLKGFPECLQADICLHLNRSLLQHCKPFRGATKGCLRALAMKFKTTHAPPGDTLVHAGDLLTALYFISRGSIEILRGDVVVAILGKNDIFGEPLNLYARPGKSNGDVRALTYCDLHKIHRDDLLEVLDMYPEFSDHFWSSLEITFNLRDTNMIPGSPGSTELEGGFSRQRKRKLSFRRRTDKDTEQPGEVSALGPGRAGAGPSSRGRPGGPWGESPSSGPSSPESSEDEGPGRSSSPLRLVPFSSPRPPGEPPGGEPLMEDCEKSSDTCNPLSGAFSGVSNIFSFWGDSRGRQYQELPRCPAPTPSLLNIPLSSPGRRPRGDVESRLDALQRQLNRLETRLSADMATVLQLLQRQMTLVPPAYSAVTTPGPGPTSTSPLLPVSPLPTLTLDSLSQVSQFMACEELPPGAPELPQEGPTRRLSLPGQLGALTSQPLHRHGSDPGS

[19] = target: 3',5'-cyclic-AMP phosphodiesterase 4D (Homo sapiens, UniProt Q08499); test: Inhibition of [3H]cAMP binding to recombinant human His-Tb fused PDE4D2 (86 to 413 residues) expressed in Escherichia coli using [3H]cAMP as substrate preincubated for 10 mins followed by [3H]cAMP addition and measured after 1 hr by scintillation proximity assay
[20] = Metabolic stability in human liver microsomes assessed as parent compound remaining after 10 mins; format: ADME, Microsome; settings: read-out: Stability
[21] = Metabolic stability in rat liver microsomes assessed as parent compound remaining after 10 mins; format: ADME, Microsome; settings: read-out: Stability
[22] = Metabolic stability in mouse liver microsomes assessed as parent compound remaining after 10 mins; format: ADME, Microsome; settings: read-out: Stability
[23] = Cmax in mouse at 10 mg/kg, po; format: ADME, organism-based; set-up: dose 10 mg/kg, route oral; settings: in vivo
[24] = AUClast in mouse at 10 mg/kg, po; format: ADME, organism-based; set-up: dose 10 mg/kg, route oral, time 0 - last; settings: in vivo
[25] = target: Non-receptor tyrosine-protein kinase TYK2 (Mus musculus, UniProt Q9R117); test: Inhibition of TYK2 JH2 domain in mouse whole blood assessed as inhibition of IFNalpha-induced STAT1 phosphorylation preincubated for 1 hr followed by IFNalpha stimulation and measured after 15 mins by fluorescence assay; format: tissue-based
[26] = Half life in human liver microsomes; format: ADME, Microsome
[27] = Half life in rat liver microsomes; format: ADME, Microsome
[28] = Half life in mouse liver microsomes; format: ADME, Microsome
[29] = Half life in cynomolgus monkey liver microsomes; format: ADME, Macaca fascicularis, Microsome
[30] = Half life in dog liver microsomes; format: ADME, Canis lupus familiaris, Microsome
[31] = Partition coefficient, log P of compound by HPLC analysis; format: physicochemical; settings: octanol/water
[32] = Cmax in mouse at 10 mg/kg, po after 7 hrs; format: ADME, organism-based; set-up: dose 10 mg/kg, route oral; settings: in vivo
[33] = AUClast in mouse at 10 mg/kg, po after 7 hrs; format: ADME, organism-based; set-up: time < 7 hr, dose 10 mg/kg, route oral; settings: in vivo

## CN(C)C(=O)c1cnc(Nc2ccc(F)cn2)cc1Nc1ccccc1C(N)=O
[1]
  IC50: 87 nM
[2]
  IC50: > 2000 nM
[3]
  IC50: > 2000 nM
[4]
  IC50: > 2000 nM
[5]
  IC50: 11000 nM
[6]
  IC50: 12000 nM
[7]
  IC50: > 12500 nM
[8]
  IC50: > 12500 nM

## CNC(=O)c1nnc(Nc2ccccn2)cc1Nc1ccccc1S(C)(=O)=O
[9]
  inhibition: Dose-dependent effect
[10]
  Activity: Active
[11]
  inhibition: Dose-dependent effect
[12]
  Activity: Active
[13]
  Activity: Active

## CNC(=O)c1cnc(Nc2ccccc2)cc1Nc1ccccc1C(N)=O
[1]
  IC50: 33 nM
[5]
  IC50: 6900 nM
[6]
  IC50: 7600 nM

## CCNC(=O)c1cnc(Nc2ccc(F)cn2)cc1Nc1ccccc1C(N)=O
[1]
  IC50: 13 nM
[2]
  IC50: > 2000 nM
[3]
  IC50: > 2000 nM
[4]
  IC50: > 2000 nM
[5]
  IC50: 4100 nM
[6]
  IC50: 2500 nM
[7]
  IC50: > 12500 nM
[8]
  IC50: > 12500 nM

## CNC(=O)c1cnc(Nc2ccc(N3CCOCC3)cn2)cc1Nc1ccccc1S(C)(=O)=O
[5]
  IC50: 71 nM
[6]
  IC50: 59 nM
[14]
  IC50: 58 nM
[15]
  Papp A→B: < 1.5 ×10⁻⁶ cm/s
[16]
  efflux ratio: > 26
[17]
  IC50: > 2000 nM
[18]
  IC50: 40000 nM

## CNC(=O)c1cnc(Nc2ccc(F)cn2)cc1Nc1ccc(F)c(F)c1OC
[1]
  IC50: 1.5 nM
[5]
  IC50: 380 nM
[6]
  IC50: 220 nM
[14]
  IC50: 2400 nM
[19]
  IC50: 7400 nM
[15]
  Papp A→B: 4.1 ×10⁻⁶ cm/s
[16]
  efflux ratio: 0.5
[20]
  remaining at 10 min: 57%
[21]
  remaining at 10 min: 73%
[22]
  remaining at 10 min: 58%
[23]
  Cmax: 1600 nM
[24]
  AUC(0-t): 4 µM·h

## CNC(=O)c1cnc(Nc2ccccn2)cc1Nc1ccccc1S(C)(=O)=O
[1]
  IC50: 0.95 nM
[5]
  IC50: 71 nM
[6]
  IC50: 57 nM
[14]
  IC50: 250 nM
[15]
  Papp A→B: 10.2 ×10⁻⁶ cm/s
[16]
  efflux ratio: 9.8
[25]
  IC50: 340 nM
[17]
  IC50: 630 nM
[18]
  IC50: 36000 nM
[26]
  half-life: 53 min
[27]
  half-life: 25 min
[28]
  half-life: 14 min
[29]
  half-life: 3 min
[30]
  half-life: 13 min
[31]
  logP: 2.24
[32]
  Cmax: 1860 nM
[33]
  AUC(0-t) at 7 h: 4.29 µM·h

## CS(=O)(=O)c1ccccc1Nc1cc(Nc2ccc(F)cn2)ncc1C(N)=O
[1]
  IC50: 0.32 nM
[2]
  IC50: 42 nM
[3]
  IC50: 43 nM
[4]
  IC50: 18 nM
[5]
  IC50: 46 nM
[6]
  IC50: 35 nM
[7]
  IC50: 960 nM
[8]
  IC50: 260 nM
[14]
  IC50: 33 nM
[20]
  remaining at 10 min: 77%
[21]
  remaining at 10 min: 3%
[22]
  remaining at 10 min: 80%
[25]
  IC50: 83 nM

## CNC(=O)c1cnc(Nc2ccc(F)cn2)cc1Nc1ccccc1
[1]
  IC50: 11 nM
[5]
  IC50: 5600 nM
[6]
  IC50: 5200 nM
[14]
  IC50: > 10000 nM
[19]
  IC50: 4500 nM
[15]
  Papp A→B: 29.3 ×10⁻⁶ cm/s
[16]
  efflux ratio: 0.5
[20]
  remaining at 10 min: 51%
[21]
  remaining at 10 min: 65%
[22]
  remaining at 10 min: 37%

## CNC(=O)c1cnc(Nc2ncccc2F)cc1Nc1ccccc1C(N)=O
[1]
  IC50: 5.9 nM
[5]
  IC50: 1300 nM
[6]
  IC50: 1800 nM

## CCCC(=O)Nc1cc(Nc2ccccc2S(C)(=O)=O)c(C(=O)NC)cn1
[5]
  IC50: 2000 nM
[6]
  IC50: 2700 nM
[14]
  IC50: 2500 nM
[17]
  IC50: > 2000 nM

## CCS(=O)(=O)c1ccccc1Nc1cc(Nc2ccc(F)cn2)ncc1C(=O)NC
[1]
  IC50: 8 nM
[5]
  IC50: 1900 nM
[6]
  IC50: 1000 nM
[14]
  IC50: 4400 nM
[19]
  IC50: 4600 nM
[15]
  Papp A→B: 5.3 ×10⁻⁶ cm/s
[16]
  efflux ratio: 6
[20]
  remaining at 10 min: 91%
[21]
  remaining at 10 min: 76%
[22]
  remaining at 10 min: 43%

## CNC(=O)c1cnc(Nc2ccc(C)nn2)cc1Nc1ccccc1S(C)(=O)=O
[5]
  IC50: 490 nM
[6]
  IC50: 320 nM
[14]
  IC50: 630 nM
[15]
  Papp A→B: < 1.5 ×10⁻⁶ cm/s
[16]
  efflux ratio: > 12
[17]
  IC50: > 2000 nM
[18]
  IC50: 43000 nM

From ChEMBL document CHEMBL4414548 (J Med Chem, 2019)
